# Assay results taken from patent US20250114338A1, “TETRAHYDRO-PYRIDO[3,4-b]INDOLE ESTROGEN RECEPTOR MODULATORS AND USES THEREOF” (Genentech, Inc., priority 2014, published 2025).
# Test system: ER-alpha MCF7
# Experiment: ER-alpha MCF7 HCS EC50; stated as measured by in vitro cell proliferation assays of Examples 902 and 903
# Assay type: cell-based
# Settings: Homo sapiens, MCF7, MCF7 cells; Table 2
# Method in brief: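 MCF7 cells seeded 1000-2000 cells/well for 16 h, then treated with nine-point 1:2 DMSO dilution series in quadruplicate at 37 °C, 5% CO2 for 4 days. Viable cells quantified by CellTiter-Glo ATP luminescence; EC50 calculated. Controls: fulvestrant at final 100 nM, DMSO 0.2% v/v.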
row,Structure (SMILES),EC50 [nM]
1,"C[C@@H]1Cc2c([nH]c3ccc(Cl)cc23)[C@@H](c2c(F)cc(OC3CN(CCCF)C3)cc2F)N1CC(C)(C)F [Example 239, (1R,3R)-6-chloro-1-(2,6-difluoro-4-((1-(3-fluoropropyl)azetidin-3-yl)oxy)phenyl)-2-(2-fluoro-2-methylpropyl)-3-methyl-2,3,4,9-tetrahydro-1H-pyrido[3,4-b]indole]",1.56
2,"C[C@@H]1Cc2c([nH]c3cc(F)ccc23)[C@@H](c2c(F)cc(OCCN3CC(CF)C3)cc2F)N1CC(C)(C)F [Example 240, (1R,3R)-1-(2,6-difluoro-4-(2-(3-(fluoromethyl)azetidin-1-yl)ethoxy)phenyl)-7-fluoro-2-(2-fluoro-2-methylpropyl)-3-methyl-2,3,4,9-tetrahydro-1H-pyrido[3,4-b]indole]",0.261
3,"C[C@@H]1Cc2c([nH]c3ccc(F)cc23)[C@@H](c2c(F)cc(OCCN3CC(CF)C3)cc2F)N1CC(C)(C)F [Example 241, (1R,3R)-1-(2,6-difluoro-4-(2-(3-(fluoromethyl)azetidin-1-yl)ethoxy)phenyl)-6-fluoro-2-(2-fluoro-2-methylpropyl)-3-methyl-2,3,4,9-tetrahydro-1H-pyrido[3,4-b]indole]",0.381
4,"C[C@@H]1Cc2c([nH]c3ccc(F)cc23)[C@@H](c2c(F)cc(OC3CN(CCCF)C3)cc2F)N1CC(C)(C)F [Example 242, (1R,3R)-1-(2,6-difluoro-4-((1-(3-fluoropropyl)azetidin-3-yl)oxy)phenyl)-6-fluoro-2-(2-fluoro-2-methylpropyl)-3-methyl-2,3,4,9-tetrahydro-1H-pyrido[3,4-b]indole]",5.42
5,"C[C@@H]1Cc2c([nH]c3ccccc23)[C@@H](c2c(F)cc(OCCN3CC(CF)C3)cc2F)N1CC1(CO)CC1 [Example 243, (1-(((1R,3R)-1-(2,6-difluoro-4-(2-(3-(fluoromethyl)azetidin-1-yl)ethoxy)phenyl)-3-methyl-1,3,4,9-tetrahydro-2H-pyrido[3,4-b]indol-2-yl)methyl)cyclopropyl) methanol]",2
6,"C[C@H]1Cc2c([nH]c3ccc(Cl)cc23)[C@H](c2c(F)cc(OC3CN(CCCF)C3)cc2F)N1CC(C)(C)F [Example 244, (1S,3S)-6-chloro-1-(2,6-difluoro-4-((1-(3-fluoropropyl)azetidin-3-yl)oxy)phenyl)-2-(2-fluoro-2-methylpropyl)-3-methyl-2,3,4,9-tetrahydro-1H-pyrido[3,4-b]indole]",63
7,"C[C@H]1Cc2c([nH]c3ccc(F)cc23)[C@H](c2c(F)cc(OCCN3CC(CF)C3)cc2F)N1CC(C)(C)F [Example 245, (1S,3S)-1-(2,6-difluoro-4-(2-(3-(fluoromethyl)azetidin-1-yl)ethoxy)phenyl)-6-fluoro-2-(2-fluoro-2-methylpropyl)-3-methyl-2,3,4,9-tetrahydro-1H-pyrido[3,4-b]indole]",35
8,"C[C@@H]1Cc2c([nH]c3ccccc23)[C@@H](c2c(F)cc(OC3CN(CCCF)C3)cc2F)N1CC1(C)COC1 [Example 246, (1R,3R)-1-[2,6-difluoro-4-[1-(3-fluoropropyl)azetidin-3-yl]oxy-phenyl]-3-methyl-2-[(3-methyloxetan-3-yl)methyl]-1,3,4,9-tetrahydropyrido[3,4-b]indole]",0.358
9,"C[C@@H]1Cc2c([nH]c3cccc(F)c23)[C@@H](c2c(F)cc(OCCN3CC(CF)C3)cc2F)N1CC(C)(C)F [Example 247, (1R,3R)-1-(2,6-difluoro-4-(2-(3-(fluoromethyl)azetidin-1-yl)ethoxy)phenyl)-5-fluoro-2-(2-fluoro-2-methylpropyl)-3-methyl-2,3,4,9-tetrahydro-1H-pyrido[3,4-b]indole]",4.34
10,"C[C@@H]1Cc2c([nH]c3cc(F)ccc23)[C@@H](c2c(F)cc(OC3CN(CCCF)C3)cc2F)N1CC(C)(C)F [Example 248, (1R,3R)-1-(2,6-difluoro-4-((1-(3-fluoropropyl)azetidin-3-yl)oxy)phenyl)-7-fluoro-2-(2-fluoro-2-methylpropyl)-3-methyl-2,3,4,9-tetrahydro-1H-pyrido[3,4-b]indole]",0.518
11,"C[C@@H]1Cc2c([nH]c3cccc(F)c23)[C@@H](c2c(F)cc(OC3CN(CCCF)C3)cc2F)N1CC(C)(C)F [Example 249, (1R,3R)-1-(2,6-difluoro-4-((1-(3-fluoropropyl)azetidin-3-yl)oxy)phenyl)-5-fluoro-2-(2-fluoro-2-methylpropyl)-3-methyl-2,3,4,9-tetrahydro-1H-pyrido[3,4-b]indole]",0.511
12,"C[C@@H]1Cc2c([nH]c3ccccc23)[C@@H](c2ccc(OCCN3CC[C@@H](CF)C3)cc2)N1CC(C)(C)F [Example 250, (1R,3R)-2-(2-fluoro-2-methyl-propyl)-1-[4-[2-[(3R)-3-(fluoromethyl)pyrrolidin-1-yl]ethoxy]phenyl]-3-methyl-1,3,4,9-tetrahydropyrido[3,4-b]indole]",0.275
13,"C[C@H]1Cc2c([nH]c3cccc(F)c23)[C@H](c2c(F)cc(OCCN3CC(CF)C3)cc2F)N1CC(C)(C)F [Example 251, (1S,3S)-1-(2,6-difluoro-4-(2-(3-(fluoromethyl)azetidin-1-yl)ethoxy)phenyl)-5-fluoro-2-(2-fluoro-2-methylpropyl)-3-methyl-2,3,4,9-tetrahydro-1H-pyrido[3,4-b]indole]",21
14,"C[C@H]1Cc2c([nH]c3cc(F)ccc23)[C@H](c2c(F)cc(OC3CN(CCCF)C3)cc2F)N1CC(C)(C)F [Example 252, (1S,3S)-1-(2,6-difluoro-4-((1-(3-fluoropropyl)azetidin-3-yl)oxy)phenyl)-7-fluoro-2-(2-fluoro-2-methylpropyl)-3-methyl-2,3,4,9-tetrahydro-1H-pyrido[3,4-b]indole]",50
15,"C[C@H]1Cc2c([nH]c3cccc(F)c23)[C@H](c2c(F)cc(OC3CN(CCCF)C3)cc2F)N1CC(C)(C)F [Example 253, (1S,3S)-1-(2,6-difluoro-4-((1-(3-fluoropropyl)azetidin-3-yl)oxy)phenyl)-5-fluoro-2-(2-fluoro-2-methylpropyl)-3-methyl-2,3,4,9-tetrahydro-1H-pyrido[3,4-b]indole]",35
16,"C[C@@H]1Cc2c([nH]c3ccccc23)[C@@H](c2c(F)cc(OCCN3CC(CF)C3)cc2F)N1CC(=O)N(C)C [Example 254, 2-[(1R,3R)-1-[2,6-difluoro-4-[2-[3-(fluoromethyl)azetidin-1-yl]ethoxy]phenyl]-3-methyl-1,3,4,9-tetrahydropyrido[3,4-b]indol-2-yl]-N,N-dimethyl-acetamide]",40
17,"C[C@@H]1Cc2c([nH]c3ccccc23)[C@@H](c2c(F)cc(OCCN3CC(CF)C3)cc2F)N1CC(C)(F)CO (stereo partly drawn) [Example 255, 3-((1R,3R)-1-(2,6-difluoro-4-(2-(3-(fluoromethyl)azetidin-1-yl)ethoxy)phenyl)-3-methyl-1,3,4,9-tetrahydro-2H-pyrido[3,4-b]indol-2-yl)-2-fluoro-2-methylpropan-1-ol]",0.01
18,"Cc1cc(OC2CN(CCCF)C2)ccc1[C@@H]1c2[nH]c3ccccc3c2C[C@@H](C)N1CC(C)(C)F [Example 256, (1R,3R)-2-(2-fluoro-2-methyl-propyl)-1-[4-[1-(3-fluoropropyl)azetidin-3-yl]oxy-2-methyl-phenyl]-3-methyl-1,3,4,9-tetrahydropyrido[3,4-b]indole]",1.69
19,"CC(C)(F)CN1[C@H](c2c(F)cc(OCCN3CC(CF)C3)cc2F)c2[nH]c3ccccc3c2CC1(C)C [Example 257, (1R)-1-[2,6-difluoro-4-[2-[3-(fluoromethyl)azetidin-1-yl]ethoxy]phenyl]-2-(2-fluoro-2-methyl-propyl)-3,3-dimethyl-4,9-dihydro-1H-pyrido[3,4-b]indole]",1.09
20,"CC(C)(F)CN1[C@@H](c2c(F)cc(OCCN3CC(CF)C3)cc2F)c2[nH]c3ccccc3c2CC1(C)C [Example 258, (S)-1-(2,6-difluoro-4-(2-(3-(fluoromethyl)azetidin-1-yl)ethoxy)phenyl)-2-(2-fluoro-2-methylpropyl)-3,3-dimethyl-2,3,4,9-tetrahydro-1H-pyrido[3,4-b]indole]",31
21,"C[C@@H]1Cc2c([nH]c3ccccc23)[C@@H](c2c(F)cc(OC3CN(CC4CC(F)(F)C4)C3)cc2F)N1CC(C)(C)F [Example 259, (1R,3R)-1-[4-[1-[(3,3-difluorocyclobutyl)methyl]azetidin-3-yl]oxy-2,6-difluoro-phenyl]-2-(2-fluoro-2-methyl-propyl)-3-methyl-1,3,4,9-tetrahydropyrido[3,4-b]indole]",0.444
22,"C[C@@H]1Cc2c([nH]c3c(F)cccc23)[C@@H](c2c(F)cc(OCCN3CC(CF)C3)cc2F)N1CC(C)(C)F [Example 260, (1R,3R)-1-(2,6-difluoro-4-(2-(3-(fluoromethyl)azetidin-1-yl)ethoxy)phenyl)-8-fluoro-2-(2-fluoro-2-methylpropyl)-3-methyl-2,3,4,9-tetrahydro-1H-pyrido[3,4-b]indole]",0.881
23,"C[C@@H]1Cc2c([nH]c3c(F)cccc23)[C@@H](c2c(F)cc(OC3CN(CCCF)C3)cc2F)N1CC(C)(C)F [Example 261, (1R,3R)-1-(2,6-difluoro-4-((1-(3-fluoropropyl)azetidin-3-yl)oxy)phenyl)-8-fluoro-2-(2-fluoro-2-methylpropyl)-3-methyl-2,3,4,9-tetrahydro-1H-pyrido[3,4-b]indole]",0.28
24,"C[C@H]1Cc2c([nH]c3c(F)cccc23)[C@H](c2c(F)cc(OCCN3CC(CF)C3)cc2F)N1CC(C)(C)F [Example 262, (1S,3S)-1-(2,6-difluoro-4-(2-(3-(fluoromethyl)azetidin-1-yl)ethoxy)phenyl)-8-fluoro-2-(2-fluoro-2-methylpropyl)-3-methyl-2,3,4,9-tetrahydro-1H-pyrido[3,4-b]indole]",26
25,"C[C@H](O)CN1[C@H](c2c(F)cc(OC3CN(CCCF)C3)cc2F)c2[nH]c3ccccc3c2C[C@H]1C [Example 263, (S)-1-((1R,3R)-1-(2,6-difluoro-4-((1-(3-fluoropropyl)azetidin-3-yl)oxy)phenyl)-3-methyl-1,3,4,9-tetrahydro-2H-pyrido[3,4-b]indol-2-yl)propan-2-ol]",0.359
